≈ marks a conversion by molar mass, not a printed value.
Assays:
Histone deacetylase [1] = assay: Inhibitory activity against histone deacetylase (HDAC) derived from partially purified extracts of human HeLa cells
Plasmodium falciparum = assay: In vitro antiprotozoal activity against Plasmodium falciparum 3D7 infected erythrocytes […]; assay type: functional, organism-based
Eimeria tenella = assay: Antiprotozoal activity (functional assay) using […] bovine kidney (MDBK) host cells infected with Eimeria tenella
HeLa = assay: Concentration for 50% inhibition of cell growth of human HeLa cells or foreskin fibroblasts in In vitro anti-proliferative functional assay
Histone deacetylase [2] = assay: Inhibitory activity against histone deacetylase (HDAC) derived from partially purified extracts of mammalian HeLa cells; design: species or system Homo sapiens

| Compound | IC50 (Histone deacetylase [1]) | IC50 (Plasmodium falciparum) | MIC (Eimeria tenella) | AP50 (HeLa) | IC50 (Histone deacetylase [2]) |
| --- | --- | --- | --- | --- | --- |
| C=C(CC)CCCCC[C@@H]1NC(=O)[C@H]2CCCCN2CC(=O)[C@H]([C@@H](C)CC)NC(=O)[C@H](Cc2cn(OC)c3ccccc23)NC1=O | 1.45 µM | 1 µg/mL (≈ 1.57 µM) | 1 µg/mL (≈ 1.57 µM) | – | – |
| CCCCCCCC[C@@H]1NC(=O)[C@H]2CCCCN2CC(=O)[C@H]([C@@H](C)CC)NC(=O)[C@H](Cc2cn(OC)c3ccccc23)NC1=O | 0.061 µM | 0.61 µg/mL (≈ 0.978 µM) | 1 µg/mL (≈ 1.6 µM) | – | – |
| CCC(N)CCCCC[C@@H]1NC(=O)[C@H]2CCCCN2CC(=O)[C@H]([C@@H](C)CC)NC(=O)[C@H](Cc2cn(OC)c3ccccc23)NC1=O (some centres not stated) | 0.144 µM | > 1 µg/mL | > 1 µg/mL | – | – |
| CC[C@H](C)[C@@H]1NC(=O)[C@H](Cc2cn(OC)c3ccccc23)NC(=O)[C@H](CCCCCP(=O)(OC)OC)NC(=O)[C@H]2CCCCN2CC1=O | 0.45 µM | 0.85 µg/mL (≈ 1.23 µM) | > 1 µg/mL | – | – |
| CCC(=O)CCCCC[C@@H]1NC(=O)[C@H]2CCCCN2CC(=O)[C@H]([C@@H](C)CC)NC(=O)[C@H](Cc2cn(OC)c3ccccc23)NC1=O | 0.001 µM | 0.058 µg/mL (≈ 0.0909 µM) | 0.094 µg/mL (≈ 0.147 µM) | – | – |
| CC[C@H](C)[C@@H]1NC(=O)[C@H](Cc2cn(OC)c3ccccc23)NC(=O)[C@H](CCCCCC(=O)NO)NC(=O)[C@H]2CCCCN2CC1=O | – | 0.00024 µg/mL (≈ 0.000375 µM) | > 0.5 µg/mL | – | – |
| CC[C@H](C)[C@@H]1NC(=O)[C@H](Cc2cn(OC)c3ccccc23)NC(=O)[C@H](CCCCCC(=O)C2CO2)NC(=O)[C@H]2CCCCN2CC1=O (some centres not stated) | < 0.0001 µM | < 0.015 µg/mL | 0.003 µg/mL (≈ 0.0046 µM) | – | – |
| CC[C@H](C)[C@@H]1NC(=O)[C@H](Cc2cn(OC)c3ccccc23)NC(=O)[C@H](CCCCCC2(CC)CO2)NC(=O)[C@H]2CCCCN2CC1=O (some centres not stated) | 0.06 µM | 1 µg/mL (≈ 1.53 µM) | > 1 µg/mL | – | – |
| CCC(=O)CCCCC[C@@H]1/N=C(\S)[C@H]2CCCCN2CC(=O)[C@H]([C@@H](C)CC)/N=C(\S)[C@H](Cc2cn(OC)c3ccccc23)NC1=O | – | 0.1 µg/mL (≈ 0.149 µM) | 0.125 µg/mL (≈ 0.187 µM) | 1000 ng/mL | – |
| CCC(=O)CCCCC[C@@H]1NC(=O)[C@H]2CCCCN2CC(=O)[C@H]([C@@H](C)CC)/N=C(\S)[C@H](Cc2cn(OC)c3ccccc23)N=C1S | – | 0.1 µg/mL (≈ 0.149 µM) | 0.125 µg/mL (≈ 0.187 µM) | 1000 ng/mL | – |
| CC[C@H](C)[C@@H]1NC(=O)[C@H](Cc2cn(OC)c3ccccc23)NC(=O)[C@H](CCCCCC(=O)OC)NC(=O)[C@H]2CCCCN2CC1=O | 0.0004 µM | 0.21 µg/mL (≈ 0.328 µM) | > 1 µg/mL | – | – |
| CC[C@H](C)[C@@H]1NC(=O)[C@H](Cc2cn(OC)c3ccccc23)NC(=O)[C@H](CCCCNC(C)=O)NC(=O)[C@H]2CCCCN2CC1=O | 2 µM | 1 µg/mL (≈ 1.6 µM) | > 1 µg/mL | – | – |
| CC[C@H](C)[C@@H]1NC(=O)[C@H](Cc2cn(OC)c3ccccc23)NC(=O)[C@H](CCCCCP(=O)([O-])O)NC(=O)[C@H]2CCCCN2CC1=O.[K+] | 0.18 µM | > 1 µg/mL | > 1 µg/mL | – | – |
| CC[C@H](C)[C@@H]1NC(=O)[C@H](Cc2cn(OC)c3ccccc23)NC(=O)[C@H](CCCCCCC(=O)OC)NC(=O)[C@H]2CCCCN2CC1=O | 0.007 µM | 0.5 µg/mL (≈ 0.765 µM) | > 1 µg/mL | – | – |
| CCC(=O)C(=O)CCCC[C@@H]1NC(=O)[C@H]2CCCCN2CC(=O)[C@H]([C@@H](C)CC)NC(=O)[C@H](Cc2cn(OC)c3ccccc23)NC1=O | 0.018 µM | 0.7 µg/mL (≈ 1.07 µM) | 0.313 µg/mL (≈ 0.48 µM) | – | – |
| CC[C@H](C)[C@@H]1NC(=O)[C@H](Cc2cn(OC)c3ccccc23)NC(=O)[C@H](CCCCCCC(=O)O)NC(=O)[C@H]2CCCCN2CC1=O | 0.848 µM | > 1 µg/mL | > 1 µg/mL | – | – |
| CC[C@H](C)[C@@H]1NC(=O)[C@H](Cc2cn(OC)c3ccccc23)NC(=O)[C@H](CCCCCC(=O)C(C)O)NC(=O)[C@H]2CCCCN2CC1=O (some centres not stated) | 0.0003 µM | 0.022 µg/mL (≈ 0.0336 µM) | 0.008 µg/mL (≈ 0.0122 µM) | – | – |
| CC[C@H](C)[C@@H]1NC(=O)[C@H](Cc2cn(OC)c3ccccc23)NC(=O)[C@H](CCCCCC(=O)C(C)F)NC(=O)[C@H]2CCCCN2CC1=O (some centres not stated) | 0.001 µM | 0.028 µg/mL (≈ 0.0427 µM) | 0.062 µg/mL (≈ 0.0945 µM) | – | – |

| Compound | IC50 (Histone deacetylase [1]) | IC50 (Plasmodium falciparum) | MIC (Eimeria tenella) | AP50 (HeLa) | IC50 (Histone deacetylase [2]) |
| --- | --- | --- | --- | --- | --- |
| CC[C@H](C)[C@@H]1NC(=O)[C@H](Cc2cn(OC)c3ccccc23)NC(=O)[C@H](CCCCCC(=O)C(C)=O)NC(=O)[C@H]2CCCCN2CC1=O | 0.03 µM | 0.9 µg/mL (≈ 1.38 µM) | 0.25 µg/mL (≈ 0.384 µM) | – | – |
| CCC(=O)C(O)CCCC[C@@H]1NC(=O)[C@H]2CCCCN2CC(=O)[C@H]([C@@H](C)CC)NC(=O)[C@H](Cc2cn(OC)c3ccccc23)NC1=O (some centres not stated) | 0.039 µM | – | 1 µg/mL (≈ 1.53 µM) | – | – |
| CCC(=O)C(F)CCCC[C@@H]1NC(=O)[C@H]2CCCCN2CC(=O)[C@H]([C@@H](C)CC)NC(=O)[C@H](Cc2cn(OC)c3ccccc23)NC1=O (some centres not stated) | 0.11 µM | 0.7 µg/mL (≈ 1.07 µM) | 0.313 µg/mL (≈ 0.477 µM) | – | – |
| CC[C@H](C)[C@@H]1NC(=O)[C@H](Cc2cn(OC)c3ccccc23)NC(=O)[C@H](CCCCCC(=O)O)NC(=O)[C@H]2CCCCN2CC1=O | 0.015 µM | > 1 µg/mL | 1 µg/mL (≈ 1.6 µM) | – | – |
| CC[C@H](C)[C@@H]1NC(=O)[C@H](Cc2cn(OC)c3ccccc23)NC(=O)[C@H](CCCCC(=O)O)NC(=O)[C@H]2CCCCN2CC1=O | 0.282 µM | – | > 1 µg/mL | – | – |
| CC[C@H](C)[C@@H]1NC(=O)[C@H](Cc2cn(OC)c3ccccc23)NC(=O)[C@H](CCCCC(=O)OC)NC(=O)[C@H]2CCCCN2CC1=O | 0.074 µM | > 1 µg/mL | > 1 µg/mL | – | – |
| CC[C@H](C)[C@@H]1NC(=O)[C@H](Cc2cn(OC)c3ccccc23)NC(=O)[C@H](CCCCCC=O)NC(=O)[C@H]2CCCCN2CC1=O | 0.006 µM | 0.5 µg/mL (≈ 0.82 µM) | 1 µg/mL (≈ 1.64 µM) | – | – |
| CC[C@H](C)[C@@H]1NC(=O)[C@H](Cc2cn(OC)c3ccccc23)NC(=O)[C@H](CCCCCC(C)=O)NC(=O)[C@H]2CCCCN2CC1=O | 0.002 µM | 0.055 µg/mL (≈ 0.0882 µM) | 0.125 µg/mL (≈ 0.2 µM) | – | – |
| CC[C@H](C)[C@@H]1NC(=O)[C@H](Cc2cn(OC)c3ccccc23)NC(=O)[C@H](CCCCSC(C)=O)NC(=O)[C@H]2CCCCN2CC1=O | 0.11 µM | > 1 µg/mL | > 1 µg/mL | – | – |
| CC[C@H](C)[C@@H]1NC(=O)[C@H](Cc2cn(OC)c3ccccc23)NC(=O)[C@H](CCCCCSC)NC(=O)[C@H]2CCCCN2CC1=O | 0.326 µM | > 1 µg/mL | > 1 µg/mL | – | – |
| CCC(=O)C1OC1CCC[C@@H]1NC(=O)[C@H]2CCCCN2CC(=O)[C@H]([C@@H](C)CC)NC(=O)[C@H](Cc2cn(OC)c3ccccc23)NC1=O (some centres not stated) | 0.005 µM | 0.35 µg/mL (≈ 0.537 µM) | 0.15 µg/mL (≈ 0.23 µM) | – | – |
| CC[C@H](C)[C@@H]1NC(=O)[C@H](Cc2cn(OC)c3ccccc23)NC(=O)[C@H](CCCCCC(=O)c2ccccc2)NC(=O)[C@H]2CCCCN2CC1=O | 0.7 µM | 0.35 µg/mL (≈ 0.51 µM) | 1 µg/mL (≈ 1.46 µM) | – | – |
| CCC(=O)CCCCC[C@@H]1NC(=O)[C@H]2CCCCN2CC(=O)[C@H]([C@@H](C)CC)/N=C(\S)[C@H](Cc2cn(OC)c3ccccc23)NC1=O | – | 0.1 µg/mL (≈ 0.153 µM) | 0.125 µg/mL (≈ 0.191 µM) | 1000 ng/mL | 0.085 µM |
| CCC(CCCCC[C@@H]1NC(=O)[C@H]2CCCCN2CC(=O)[C@H]([C@@H](C)CC)NC(=O)[C@H](Cc2cn(OC)c3ccccc23)NC1=O)SC(C)=O (some centres not stated) | – | 0.59 µg/mL (≈ 0.845 µM) | 0.25 µg/mL (≈ 0.358 µM) | – | – |
| CC[C@H](C)[C@@H]1NC(=O)[C@H](Cc2cn(OC)c3ccccc23)NC(=O)[C@H](CCCCCSC(C)=O)NC(=O)[C@H]2CCCCN2CC1=O | 0.003 µM | 0.9 µg/mL (≈ 1.37 µM) | 1 µg/mL (≈ 1.52 µM) | – | – |
| CC[C@H](C)[C@@H]1NC(=O)[C@H](Cc2cn(OC)c3ccccc23)NC(=O)[C@H](CCCCCC(=O)C(C)C)NC(=O)[C@H]2CCCCN2CC1=O | 0.235 µM | 0.5 µg/mL (≈ 0.767 µM) | 0.75 µg/mL (≈ 1.15 µM) | – | – |
| CCCC(=O)CCCCC[C@@H]1NC(=O)[C@H]2CCCCN2CC(=O)[C@H]([C@@H](C)CC)NC(=O)[C@H](Cc2cn(OC)c3ccccc23)NC1=O | 0.001 µM | 0.15 µg/mL (≈ 0.23 µM) | 0.125 µg/mL (≈ 0.192 µM) | – | – |

From ChEMBL document CHEMBL1133987, “Broad spectrum antiprotozoal agents that inhibit histone deacetylase: structure-activity relationships of apicidin. Part 1” (Bioorg Med Chem Lett, 2001)
